The text below walks through data of patent US9988397B2, “ERK inhibitors” (Merck Sharp & Dohme Corp., priority 2014, dated 2018).

Each structure is given as a SMILES string.

The term IC50 denotes the concentration at which inhibition is half-maximal. Low readings indicate inhibition by little substance, high ones a need for much substance.

The assay deals with phosphorylated active hERK2 enzyme (Homo sapiens, UniProt P28482). As to the kind of experiment: Active human ERK2 (hERK2) Activity Assay (IMAP-FP). The assay is classed as biochemical. Particulars: 10 point titration, 3 μM starting concentration, 0.5 nM hERK2, 30 μM ATP, 60 minutes reaction.
phosphorylated active hERK2 enzyme, sequence (P28482 whole entry): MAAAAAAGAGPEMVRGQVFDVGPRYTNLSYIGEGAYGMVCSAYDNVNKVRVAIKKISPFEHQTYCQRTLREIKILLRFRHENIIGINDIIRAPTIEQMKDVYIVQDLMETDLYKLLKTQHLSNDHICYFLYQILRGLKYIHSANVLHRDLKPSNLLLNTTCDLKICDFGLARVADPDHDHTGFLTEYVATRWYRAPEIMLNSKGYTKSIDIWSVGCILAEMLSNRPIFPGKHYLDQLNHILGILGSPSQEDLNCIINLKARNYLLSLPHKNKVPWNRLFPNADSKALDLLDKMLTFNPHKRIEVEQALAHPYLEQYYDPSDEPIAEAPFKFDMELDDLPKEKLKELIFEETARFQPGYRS
Experimental: Activated ERK2 activity was determined in an IMAP-FP assay (Molecular Devices). Using this assay format, the potency (IC50) of each compound was determined from a 10 point (1:3 serial dilution, 3 μM starting compound concentration) titration curve using the following outlined procedure. […] Following a 15 minute compound & enzyme incubation, each reaction was initiated by the addition of 10 μL kinase buffer containing 2.45 μM ERK2 IMAP substrate peptides and 75 μM ATP. The final reaction in each well of 25 μL consists of 0.5 nM hERK2, 900 nM unlabeled peptide, 80 nM labeled-peptide, and 30 μM ATP. Phosphorylation reactions were allowed to proceed for 60 minutes and were immediately quenched by the addition of 60 μL IMAP detection beads (1:1000 dilutions) in IMAP binding buffer (Molecular Devices) with 24 mM NaCl. Plates were read on EnVision reader after 60 minutes binding equilibration using Fluorescence Polarization protocol (Perkin Elmer).
The compound `Cc1cc(-n2ncc3cc4nc(c32)Cn2cc(nn2)CC(c2ccccc2)NC(=O)N4)ccn1` (single isomer, unassigned) [Example 38, 1-(2-Methylpyridin-4-yl)-9-phenyl-1,6,9,10-tetrahydro-5,16-(azeno)-14,11-(metheno)pyrazolo[4,3-l][1,2,3,7,9]pentaazacyclopentadecin-7(8H,15H)-one] yielded an IC50 of 87.3 nM.
In the case of `Cc1cc(-n2ncc3cc4nc(c32)Cn2cc(nn2)CC(c2ccccc2)NC(=O)N4)ccn1` (single isomer, unassigned) [Example 39, 1-(2-Methylpyridin-4-yl)-9-phenyl-1,6,9,10-tetrahydro-5,16-(azeno)-14,11-(metheno)pyrazolo[4,3-l][1,2,3,7,9]pentaazacyclopentadecin-7(8H,15H)-one] it was 233 nM; in that of `CCn1ncc2cc3nc(c21)C[C@@H](OC)COC[C@@H](c1ccccc1)NC(=O)N3` (stereo in doubt) [Example 44, (9R,13R)-1-Ethyl-13-methoxy-9-phenyl-1,6,9,10,13,14-hexahydro-12H-5,15-(azeno)pyrazolo[4,3-i][1,4,6]oxadiazacyclotetradecin-7(8H)-one], 32.8 nM.
Compound `CCn1ncc2cc3nc(c21)CCCOC[C@H](c1ccccc1)NC(=O)N3` [Example 1, (9S)-1-Ethyl-9-phenyl-1,6,9,10,13,14-hexahydro-12H-5,15-(azeno)pyrazolo[4,3-i][1,4,6]oxadiazacyclotetradecin-7(8H)-one] registered an IC50 of 8.79 nM.
For `Cn1ncc2cc3nc(c21)CCCOC[C@H](c1ccccc1)NC(=O)N3` [Example 2, (9S)-1-Methyl-9-phenyl-1,6,9,10,13,14-hexahydro-12H-5,15-(azeno)pyrazolo[4,3-i][1,4,6]oxadiazacyclotetradecin-7(8H)-one] the value was 10.2 nM.
On to `CCn1ncc2cc3nc(c21)CC(C)(O)COC[C@H](c1ccccc1)NC(=O)N3` (stereo partly drawn) [Example 5, (9S)-1-Ethyl-13-hydroxy-13-methyl-9-phenyl-1,6,9,10,13,14-hexahydro-12H-5,15-(azeno)pyrazolo[4,3-i][1,4,6]oxadiazacyclotetradecin-7(8H)-one], for which the 50% inhibitory concentration (IC50) is 114 nM.
Consider `CCn1ncc2cc3nc(c21)[C@@H]1C[C@@H]1COC[C@H](c1ccccc1)NC(=O)N3` [Example 7, (9S,12aS,13 aR)-1-Ethyl-9-phenyl-1,6,9,10,12,12a,13,13a-octahydro-5,14-(azeno)cyclopropa[l]pyrazolo[4,3-i][1,4,6]oxadiazacyclotetradecin-7(8H)-one], for which the IC50 is 11.6 nM.
For `CCn1ncc2cc3nc(c21)[C@H]1C[C@H]1COC[C@H](c1ccccc1)NC(=O)N3` [Example 8, (9S,12aR,13aS)-1-Ethyl-9-phenyl-1,6,9,10,12,12a,13,13a-octahydro-5,14-(azeno)cyclopropa[1]pyrazolo[4,3-i][1,4,6]oxadiazacyclotetradecin-7(8H)-one], the IC50 was 49.7 nM.
For `O=C1Nc2cc3cnn(C(F)F)c3c(n2)CCCOC[C@H](c2ccccc2)N1` [Example 9, (9S)-1-(Difluoromethyl)-9-phenyl-1,6,9,10,13,14-hexahydro-12H-5,15-(azeno)pyrazolo[4,3-i][1,4,6]oxadiazacyclotetradecin-7(8H)-one] the value was 12.5 nM; for `O=C1Nc2cc3cnn(C(F)F)c3c(n2)/C=C\COC[C@H](c2ccccc2)N1` [Example 10, (9S,13Z)-1-(Difluoromethyl)-9-phenyl-1,6,9,10-tetrahydro-12H-5,15-(azeno)pyrazolo[4,3-i][1,4,6]oxadiazacyclotetradecin-7(8H)-one], 4.16 nM.
In the case of `CCn1ncc2cc3nc(c21)CCCOC(C)(C)[C@H](c1ccccc1)NC(=O)N3` [Example 11, (9S)-1-Ethyl-10, 10-dimethyl-9-phenyl-1,6,9,10,13,14-hexahydro-12H-5,15-(azeno)pyrazolo [4,3-i][1,4,6]oxadiazacyclotetradecin-7(8H)-one] it was 16.2 nM; in that of `CCn1ncc2cc3nc(c21)CCCOC(C)(C)[C@@H](c1ccccc1)NC(=O)N3` [Example 12, (9R)-1-Ethyl-10,10-dimethyl-9-phenyl-1,6,9,10,13,14-hexahydro-12H-5,15-(azeno)pyrazolo[4,3-i][1,4,6]oxadiazacyclotetradecin-7(8H)-one], 734 nM.
Compound `CCn1ncc2cc3nc(c21)CCCO[C@@H](CO)[C@@H](c1ccccc1)NC(=O)N3` [Example 13, (9R,10R)-1-Ethyl-10-(hydroxymethyl)-9-phenyl-1,6,9,10,13,14-hexahydro-12H-5,15-(azeno)pyrazolo[4,3-i][1,4,6]oxadiazacyclotetradecin-7(8H)-one] registered a 50% inhibitory concentration (IC50) of 757 nM.
`CCn1ncc2cc3nc(c21)CCCO[C@H](CO)[C@H](c1ccccc1)NC(=O)N3` [Example 14, (9S,10S)-1-Ethyl-10-(hydroxymethyl)-9-phenyl-1,6,9,10,13,14-hexahydro-12H-5,15-(azeno)pyrazolo[4,3-i][1,4,6]oxadiazacyclotetradecin-7(8H)-one] yielded a 50% inhibitory concentration (IC50) of 3.44 nM.
Compound `CN1CCCc2nc(cc3cnn(C)c23)NC(=O)N[C@@H](c2ccccc2)C1` [Example 15, (9S)-1,11-Dimethyl-9-phenyl-1,6,9,10,11,12,13,14-octahydro-5,15-(azeno)pyrazolo[3,4-k][1,3,6]triazacyclotetradecin-7(8H)-one] came in with a concentration for half-maximal inhibition (IC50) of 56.8 nM.
In the case of `CCn1ncc2cc3nc(c21)OCCCCC(c1ccccc1)NC(=O)N3` (stereo not drawn) [Example 16, 1-Ethyl-9-phenyl-1,6,8,9,10,11,12,13-octahydro-7H-5,15-(azeno)pyrazolo [3,4-c][1,7,9]oxadiazacyclotetradecin-7-one] it was 85.4 nM; in that of `Cn1ncc2cc3nc(c21)OCCCC[C@H](c1ccccc1)NC(=O)N3` [Example 17, (9R)-1-Methyl-9-phenyl-1,6,8,9,10,11,12,13-octahydro-7H-5,15-(azeno)pyrazolo [3,4-c][1,7,9]oxadiazacyclotetradecin-7-one], 58.9 nM.
The compound `CCn1ncc2cc3nc(c21)NCCCCC(c1ccccc1)NC(=O)N3` (stereo not drawn) [Example 18, 1-Ethyl-9-phenyl-1,6,9,10,11,12,13,14-octahydro-5,15-(azeno)pyrazolo[4,3-f][1,3,9]triazacyclotetradecin-7(8H)-one] showed an IC50 of 15.7 nM.
`Cn1ncc2cc3nc(c21)NCCCC[C@H](c1ccccc1)NC(=O)N3` [Example 19, (9R)-1-Methyl-9-phenyl-1,6,9,10,11,12,13,14-octahydro-5,15-(azeno)pyrazolo[4,3-f][1,3,9]triazacyclotetradecin-7(8 H)-one] came in with a half-inhibitory concentration (IC50) of 9.32 nM.
Turning to `CN1CCCCC(c2ccccc2)NC(=O)Nc2cc3cnn(C)c3c1n2` (stereo not drawn) [Example 20, 1,14-Dimethyl-9-phenyl-1,6,9,10,11,12,13,14-octahydro-5,15-(azeno)pyrazolo[4,3-f][1,3,9]triazacyclotetradecin-7(8H)-one], the midpoint of inhibition, the IC50, lay at 85.7 nM.
In the case of `CCn1ncc2cc3nc(c21)NCCOC[C@H](c1ccccc1)NC(=O)N3` [Example 21, (9S)-1-Ethyl-9-phenyl-1,6,9,10,13,14-hexahydro-12H-5,15-(azeno)pyrazolo[4,3-i][1,4,6,12]oxatriazacyclotetradecin-7(8H)-one] it was 5.01 nM.
In the case of `Cn1ncc2cc3nc(c21)NCCOC[C@H](c1ccccc1)NC(=O)N3` [Example 22, (9 S)-1-Methyl-9-phenyl-1,6,9,10,13,14-hexahydro-12H-5,15-(azeno)pyrazolo[4,3-i][1,4,6,12]oxatriazacyclotetradecin-7(8 H)-one] it was 7.91 nM; in that of `Cn1ncc2cc3nc(c21)OCCC[C@H](O)[C@H](c1ccccc1)NC(=O)N3` [Example 23, (9S,10S)-10-Hydroxy-1-methyl-9-phenyl-1,6,8,9,10,11,12,13-octahydro-7H-5,15-(azeno)pyrazolo[3,4-c][1,7,9]oxadiazacyclotetradecin-7-one], 45.1 nM.
With `Cn1ncc2cc3nc(c21)OCCC[C@@H](O)[C@H](c1ccccc1)NC(=O)N3` [Example 24, (9S,10R)-10-Hydroxy-1-methyl-9-phenyl-1,6,8,9,10,11,12,13-octahydro-7H-5,15-(azeno)pyrazolo[3,4-c][1,7,9]oxadiazacyclotetradecin-7-one], the IC50 worked out at 190 nM.
Consider `CCn1ncc2cc3nc(c21)OCCC[C@H](O)[C@H](c1ccccc1)NC(=O)N3` [Example 25, (9S,10S)-1-Ethyl-10-hydroxy-9-phenyl-1,6,8,9,10,11,12,13-octahydro-7H-5,15-(azeno)pyrazolo[3,4-c][1,7,9]oxadiazacyclotetradecin-7-one], for which the concentration for half-maximal inhibition (IC50) was determined as 24.3 nM.
In the case of `CCn1ncc2cc3nc(c21)OCCC[C@@H](O)[C@H](c1ccccc1)NC(=O)N3` [Example 26, (9S,10R)-1-Ethyl-10-hydroxy-9-phenyl-1,6,8,9,10,11,12,13-octahydro-7H-5,15-(azeno)pyrazolo[3,4-c][1,7,9]oxadiazacyclotetradecin-7-one], the half-maximal inhibitory concentration (IC50) was found to be 118 nM. This IC50 is about 4.9-fold higher than that of the compound before.
In the case of `CCn1ncc2cc3nc(c21)OCCC[C@](C)(O)[C@H](c1ccccc1)NC(=O)N3` [Example 27, (9S,10S)-1-Ethyl-10-hydroxy-10-methyl-9-phenyl-1,6,8,9,10,11,12,13-octahydro-7H-5,15-(azeno)pyrazolo[3,4-c][1,7,9]oxadiazacyclotetradecin-7-one] it was 148 nM; in that of `CCn1ncc2cc3nc(c21)OCCC[C@@](C)(O)[C@H](c1ccccc1)NC(=O)N3` [Example 28, (9S,10R)-1-Ethyl-10-hydroxy-10-methyl-9-phenyl-1,6,8,9,10,11,12,13-octahydro-7H-5,15-(azeno)pyrazolo[3,4-c][1,7,9]oxadiazacyclotetradecin-7-one], 144 nM.
In turn, `Cn1ncc2cc3nc(c21)OCCOC[C@H](c1ccccc1)NC(=O)N3` [Example 29, (9S)-1-methyl-9-phenyl-1,6,9,10,12,13-hexahydro-5,15-(azeno)pyrazolo[4,3-i][1,12,4,6]dioxadiazacyclotetradecin-7(8H)-one] returned an IC50 of 49.2 nM.
`Cn1ncc2cc3nc(c21)CCCCCC(c1ccccc1)NC(=O)N3` (stereo not drawn) [Example 30, 1-Methyl-9-phenyl-1,6,9,10,11,12,13,14-octahydro-5,15-(azeno)pyrazolo[4,3-f][1,3]diazacyclotetradecin-7(8H)-one] registered a concentration for half-maximal inhibition (IC50) of 230 nM.
